These results are taken from patent US4182895A, “1-Amino-lower-alkyl-3,4-diphenyl-1H-pyrazoles” (Sterling Drug Inc., priority 1978, dated 1980).

As a reminder, the ED50 is the dose at which the effect has come halfway, by size or by number of responders. A lower ED50 goes with greater potency.

Test [1] concerns acetylcholine-induced abdominal constriction. Kind of test: Acetylcholine-induced abdominal constriction test (Ach), analgesic activity. The class given is in vivo, mice. Conditions: for ED50: Mus musculus. From the text:
(§1) The test procedures used to determine the analgesic activities of the compounds of the invention have been described in detail in the prior art and are as follows: The acetylcholine-induced abdominal constriction test, which is a primary analgesic screening test to measure the ability of a test agent to suppress acetylcholine-induced abdominal constriction in mice described by Collier et al., Brit. J. Pharmacol. Chemotherap. 32, 295 (1968) and the phenyl p-quinone-induced writhing test, also a primary analgesic screening test, designed to measure the ability of a test agent to prevent phenyl p-quinone-induced writhing in mice, described by Pearl and Harris, J. Pharmacol. Exptl. Therap. 154, 319-323 (1966).

In another test the test system is tetrabenazine. Nature of the test: Anti-tetrabenazine (TB) test, anti-depressant activity: photocell activity counts after tetrabenazine. The class given is in vivo, Male Swiss-Webster mice. Particulars: 4 h before tetrabenazine 50 mg./kg. i.p. The procedure: The test procedure used to determine the anti-depressant activity of the compounds of the invention is described as follows: Male Swiss-Webster mice (Taconic Farms) weighing from 19-24 g. were divided into four groups of nine to ten mice per group. […] The fourth group received the vehicle only. Four hours following medication, all the control and the test animals were medicated with 50 mg./kg. (i.p.) of tetrabenazine and were placed in a photocell activity cage [described by Harris et al., Psychon. Sci., 4, 267 (1966)] equipped with a digital counter to record the number of times that a light beam impinging on a photocell is interrupted during the test period. Beginning thirty minutes after tetrabenazine medication, the photocell units were activated and the photocell counts recorded over a fifty minute period.

For test [2] the following is noted: Rosenthal, 1953; cited from earlier work.
The subject of test [3] is phenyl p-quinone-induced writhing. Nature of the test: Phenyl p-quinone-induced writhing test (PPQ), analgesic activity. The class given is in vivo, mice. Particulars: Mus musculus, po.
From the text: as §1
In general terms: In writhing tests, fewer writhes than in controls are read as antinociception.

For test [4] the following is noted: Buchi et al., 1955; cited from earlier work.
[5] abbreviates: Tested at 4, 16 and 64 mg./kg. (p.o.), activity = significant difference, 0.05 level or less.

The structures appear in SMILES notation.

On to `CCN(CC)CCCn1cc(-c2ccccc2)c(-c2ccccc2)n1.Cl` [Example 4, 1-[3-(N,N-diethylamino)propyl]-3,4-diphenyl-1H-pyrazole hydrochloride], for which, in test [1] (sc), the median effective dose (ED50) amounted to 2.2 mg/kg. Moreover, in the test with tetrabenazine (setting [5]), the “TB (anti-tetrabenazine activity)” value is reported as “Inac”.
Take `NCCn1nc(-c2ccccc2)cc1-c1ccccc1` [1-(2-aminoethyl)-3,5-diphenyl-1H-pyrazole]: the local anesthetic activity entry in test [2] was “having local anesthetic activity”.
As for `CCN(CC)CCn1cc(-c2ccccc2)c(-c2ccccc2)n1.Cl` [Example 3, 1-[2-(N,N-diethylamino)ethyl]-3,4-diphenyl-1H-pyrazole hydrochloride], the Ach % effect in test [1] (10 mg./kg. s.c.) came to 53%; in test [1] (50 mg./kg. s.c.) it was 67%; in test [1] (100 mg./kg. s.c.), 60%. Further, the ED50 in test [1] (po) was found to be 29 mg/kg; in test [3], 90 mg/kg. Also, the “TB (anti-tetrabenazine activity)” value in the test with tetrabenazine (setting [5]) is reported as “Inac”.
`Cl.Cl.NCCCn1cc(-c2ccccc2)c(-c2ccccc2)n1` [Example 1A, 1-(3-aminopropyl)-3,4-diphenyl-1H-pyrazole dihydrochloride] yielded a median effective dose (ED50) in test [1] (sc) of 11 mg/kg. Moreover, in the test with tetrabenazine (setting [5]), the “TB (anti-tetrabenazine activity)” value is “Inac”.
On to `Cc1cn(CCN(C)C)nc1-c1ccccc1` [1-(2-dimethylaminoethyl)-3-phenyl-4-methyl-1H-pyrazole], for which, in test [4], the analgesic activity entry is on record as “analgesic activity is asserted”.
As for `CNCCCn1cc(-c2ccccc2)c(-c2ccccc2)n1.Cl` [Example 1B, 1-[3-(N-methylamino)propyl]-3,4-diphenyl-1H-pyrazole hydrochloride], the “TB (anti-tetrabenazine activity)” value in the test on tetrabenazine (at 4 mg./kg.) is reported as “Inac”; with tetrabenazine (at 16 and 64 mg./kg.) it was “Act”.
Consider `CN(C)CCCn1cc(-c2ccccc2)c(-c2ccccc2)n1.Cl.Cl` [Example 2, 1-[3-(N,N-dimethylamino)propyl]-3,4-diphenyl-1H-pyrazole dihydrochloride], for which the “TB (anti-tetrabenazine activity)” value with tetrabenazine (at 2 mg./kg.) is given as “Inac”; in the test on tetrabenazine (at 4, 8 and 16 mg./kg.), “Act”.
